This note sets out measurements from patent publication US9556159B2, “Renin inhibitor” (MITSUBISHI TANABE PHARMA CORPORATION, priority 2012, dated 2017).

SMILES strings stand for the structures.

For the first assay, the target named is T1, Recombinant human renin (Homo sapiens, UniProt P00797).
T1 sequence (P00797 67-406): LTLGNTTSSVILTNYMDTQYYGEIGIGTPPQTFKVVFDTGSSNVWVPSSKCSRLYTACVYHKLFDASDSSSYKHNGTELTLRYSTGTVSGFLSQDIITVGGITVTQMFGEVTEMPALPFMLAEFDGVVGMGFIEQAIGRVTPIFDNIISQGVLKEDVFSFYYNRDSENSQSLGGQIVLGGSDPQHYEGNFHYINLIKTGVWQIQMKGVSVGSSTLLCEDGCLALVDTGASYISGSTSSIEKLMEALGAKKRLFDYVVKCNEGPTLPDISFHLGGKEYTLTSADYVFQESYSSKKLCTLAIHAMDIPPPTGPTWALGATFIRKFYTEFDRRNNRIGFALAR
The assay is described as follows: Inhibitory activity against human renin (fluorogenic peptide substrate). Format: biochemical. As to conditions: 37° C. for 1 hour, read-out: IC50. The protocol: Inhibitory Activity Against Human Renin
A substrate of synthetic peptide (Nma-KHPFH LVIHK(Dnp)-NH2) and test compound were mixed, and fluorescence intensity was assayed using a fluorophotometer before starting an enzymatic reaction (exciting wavelength: 340 nm, measuring wavelength: 460 nm). Recombinant human renin was added and the mixture was incubated at 37° C. for 1 hour, and the fluorescence intensity was measured after the reaction using a fluorophotometer (exciting wavelength: 340 nm, measuring wavelength: 460 nm).
Usually IC50 stands for the concentration needed to halve the response being measured. As for `COC(=O)NCCn1nc(C)c2ccc([C@@H](C)N(C(=O)[C@H]3CNCCO3)C3CC3)cc21` [Example 9], the IC50 stood at 7.3 nM.

Consider `COC[C@@H]1CNC[C@H](C(=O)N(C2CC2)[C@H](C)c2cc(CCCNC(=O)OC)nc(OC)c2)O1` [Example 2, methyl (3-{4-[(1R)-1-(cyclopropyl{[(2R,6S)-6-(methoxymethyl)morpholin-2-yl]carbonyl}amino)ethyl]-6-methoxypyridin-2-yl}propyl)carbamate], for which the half-inhibitory concentration (IC50) was found to be 0.3 nM. For `COCCCCn1cc([C@@H](C)N(C(=O)[C@H]2CNCCO2)C2CC2)c2nccc(CCOC)c21` [Example 86], the IC50 came out at 1.1 nM. For the compound `CCc1ccc2c([C@@H](C)N(C(=O)[C@H]3CNCCO3)C3CC3)nn(CCCNC(=O)OC)c2n1` [Example 89], the IC50 turned out to be 1 nM. As for `COCCCc1nn(C)c2ccc([C@@H](C)N(C(=O)[C@H]3CNCCO3)C3CC3)cc12` [Example 26], the IC50 stood at 3.4 nM. Regarding `CCC(=O)NCCCc1cc([C@@H](C)N(C(=O)[C@H]2CNCCO2)C2CC2)ccc1OC` [Example 68], the concentration for half-maximal inhibition (IC50) turned out to be 4.5 nM.

As to `COC(=O)NCCCn1nc([C@@H](C)N(C(=O)[C@H]2CNCCO2)C2CC2)c2cccc(C)c21` [Example 62], the IC50 stood at 0.6 nM. Consider `COCc1cccc2c([C@@H](C)N(C(=O)[C@H]3CNCCO3)C3CC3)nn(CCCNC(=O)OC)c12` [Example 81], for which the IC50 was 0.4 nM.

For `COC(=O)NCCc1cn(C)c2ccc([C@@H](C)N(C(=O)[C@H]3CNCCO3)C3CC3)cc12` [Example 108], the IC50 worked out at 1.1 nM.

The same assay, now with this note: 50% inhibitory concentration (IC50) against human renin, 37° C. for 1 hour.
For `COC(=O)NCCCc1cc(C(C)N(C(=O)[C@H]2CNCCO2)C2CC2)sc1-c1cccnc1N` (stereo partly shown) [Example 422], the half-inhibitory concentration (IC50) turned out to be 1.7 nM.

For the compound `CCc1nc([C@@H](C)N(C(=O)[C@H]2CNC[C@@H](COC)O2)C2CC2)cc2c1ncn2CCCOC` [Example 394], the IC50 turned out to be 0.6 nM. Consider `COC[C@H]1CO[C@@H](C(=O)N(C2CC2)[C@@H](C)c2cc(C3CCOCC3)n(CCCNC(=O)OC)n2)CN1` [Example 323], for which the half-inhibitory concentration (IC50) amounted to 2 nM.

With `COc1ccc(Cn2cc([C@@H](C)N(C(=O)[C@H]3CNCCO3)C3CC3)nc2-c2ccccc2)cc1` [Example 204], the IC50 amounted to 7.1 nM. As to `COCCCCn1nc([C@@H](C)N(C(=O)[C@H]2CNCCO2)C2CC2)cc1-c1ccccn1` [Example 205], the IC50 worked out at 1.4 nM. In the case of `COC(=O)NCCCc1cc([C@@H](C)N(C(=O)[C@H]2CNCCO2)C2CC2)sc1-c1ccccc1C(=O)NS(C)(=O)=O` [Example 287], the concentration for half-maximal inhibition (IC50) stood at 0.8 nM. The same measure, in the same setting: the value for `CCc1cn(CCCOC)c2cc([C@@H](C)N(C(=O)[C@H]3CNCCO3)C3CC3)nc(C#N)c12` [Example 150] was 2.6 nM; that for `COC(=O)NCCCn1cc([C@@H](C)N(C(=O)[C@H]2CNCCO2)C2CC2)nc1C(F)(F)F` [Example 319] was 3.5 nM. `COC(=O)NCCCc1cc(C2CC2)nc([C@@H](C)N(C(=O)[C@H]2CNCCO2)C2CC2)c1` [Example 133]: the half-maximal inhibitory concentration (IC50) was 1.6 nM. As to `COC(=O)NCCCn1cc([C@@H](C)N(C(=O)[C@H]2CNC[C@@H](C)O2)C2CC2)nc1-c1ccccc1` [Example 202], the IC50 came out at 0.2 nM. Turning to `COC(=O)NCCCc1cc([C@@H](C)N(C(=O)[C@H]2CNC[C@@H](CF)O2)C2CC2)nn1-c1ccccc1` [Example 369], the IC50 was 1.5 nM. As to `COC(=O)NCCCc1cc([C@@H](C)N(C(=O)[C@H]2CNCCO2)C2CC2)sc1-c1ccccc1O` [Example 264], the half-inhibitory concentration (IC50) worked out at 1.1 nM.

For the compound `COC(=O)NCCCc1cc([C@@H](C)N(C(=O)[C@H]2CNCCO2)C2CC2)sc1-c1ccccc1-c1n[nH]c(=O)o1` [Example 276], the half-maximal inhibitory concentration (IC50) was 0.5 nM. With `CCc1nc([C@@H](C)N(C(=O)[C@H]2CNCCO2)C2CC2)cc2c1c(C)cn2CCCOC` [Example 140], the IC50 was determined as 0.8 nM. Regarding `CNC(=O)[C@@H]1CNC[C@H](C(=O)N(C2CC2)[C@H](C)c2nn(CCCNC(=O)OC)c3nc(C)ccc23)O1` [Example 259], the 50% inhibitory concentration (IC50) came out at 1.2 nM.

For `COCCCn1cc(COC)c2c(C(C)C)nc([C@@H](C)N(C(=O)[C@H]3CNCCO3)C3CC3)cc21` [Example 153], the half-inhibitory concentration (IC50) was 2.2 nM. Regarding `COC(=O)NCCCn1cc([C@H](C)N(C(=O)[C@H]2CN[C@@H](CCF)CO2)C2CC2)nc1OC(C)C` [Example 341], the IC50 turned out to be 0.3 nM. For `COC(=O)NCCCc1sc([C@@H](C)N(C(=O)[C@H]2CNCCO2)C2CC2)cc1-c1ccc(F)cc1` [Example 428], the half-maximal inhibitory concentration (IC50) worked out at 8.1 nM. For the compound `COC(=O)NCCCc1nc([C@@H](C)N(C(=O)[C@H]2CNCCO2)C2CC2)sc1-c1cccc(F)c1` [Example 400], the IC50 is 2.3 nM. On the same count and under the same terms, the value for `COCCCn1ncc2c(C)cc([C@@H](C)N(C(=O)[C@H]3CNC[C@@H](COC)O3)C3CC3)nc21` [Example 385] was 4.3 nM; that for `COC(=O)NCCCc1cc([C@@H](C)N(C(=O)[C@H]2CN[C@@H](C)CO2)C2CC2)nn1-c1cccc(F)c1` [Example 370] was 1.7 nM. With `COC(=O)NCCCc1nc([C@@H](C)N(C(=O)[C@H]2CNCCO2)C2CC2)cnc1O[C@@H]1CCOC1` [Example 433], the IC50 is 5.3 nM. On to `COC(=O)NCCCn1cc([C@@H](C)N(C(=O)[C@H]2CNC[C@@H](C(F)(F)F)O2)C2CC2)c2ncccc21` [Example 252], for which the IC50 came out at 6.4 nM. On to `COC(=O)NCCCc1cc([C@H](C)N(C(=O)[C@H]2CNC[C@@H](COc3ccccc3)O2)C2CC2)nn1C1CCOCC1` [Example 334], for which the IC50 stood at 0.3 nM. Take `COC(=O)NCCCc1cc([C@@H](C)N(C(=O)[C@H]2CNCCO2)C2CC2)sc1-c1cccc(C)n1` [Example 226]: the half-inhibitory concentration (IC50) was 0.3 nM. In the case of `COC(=O)NCCCc1sc([C@@H](C)N(C(=O)[C@H]2CNCCO2)C2CC2)cc1-c1ccccc1C(=O)OC` [Example 434], the IC50 came out at 2 nM.

On to `COC(=O)NCCCn1cc([C@H](C)N(C(=O)[C@H]2CNC[C@@H](C)O2)C2CC2)nc1C1CCCCC1` [Example 333], for which the 50% inhibitory concentration (IC50) is 0.3 nM. Take `COC(=O)NCCCn1cc([C@H](C)N(C(=O)[C@H]2CNCCO2)C2CC2)nc1Oc1ccccc1` [Example 313]: the IC50 stood at 2.5 nM. Turning to `COC(=O)NCCCn1cc([C@@H](C)N(C(=O)[C@H]2CNC[C@@H](CF)O2)C2CC2)nc1C1CCOCC1` [Example 404], the IC50 is 0.7 nM. With `COC(=O)NCCCc1cc([C@@H](C)N(C(=O)[C@H]2CNCCO2)C2CC2)sc1-c1ccccc1C(=O)OC` [Example 268], the IC50 amounted to 0.5 nM. Take `COC(=O)NCCCn1cc([C@@H](C)N(C(=O)[C@H]2CNCCO2)C2CC2)nc1-c1ccc(Cl)cc1` [Example 170]: the IC50 stood at 0.4 nM.

On to `COC(=O)NCCCn1nc([C@@H](C)N(C(=O)[C@H]2CN[C@@H](C)CO2)C2CC2)c2ccc(C)nc21` [Example 249], for which the half-maximal inhibitory concentration (IC50) was 0.5 nM. Regarding `COC(=O)NCCCc1cc([C@@H](C)N(C(=O)[C@H]2CNC[C@@H](C)O2)C2CC2)cc(OC)n1` [Example 238], the IC50 stood at 0.6 nM. The same measure, in the same setting: the result for `COC(=O)NCCCc1cc([C@@H](C)N(C(=O)[C@H]2CNCCO2)C2CC2)sc1-c1cncnc1` [Example 242] reads 0.8 nM.

For the compound `COC[C@@H]1CNC[C@H](C(=O)N(C2CC2)[C@H](C)c2cc(CCCNC(=O)OC)n(C(C)C)n2)O1` [Example 301], the IC50 was found to be 0.6 nM. On the same count and under the same terms, the value for `COC(=O)NCCCc1cc([C@@H](C)N(C(=O)[C@H]2CNCCO2)C2CC2)nn1-c1ccccc1` [Example 183] was 0.3 nM. Take `COC(=O)NCCCc1cc(C(C)N(C(=O)[C@H]2CNCCO2)C2CC2)cnc1O[C@H]1CCOC1` (stereo partly shown) [Example 440]: the concentration for half-maximal inhibition (IC50) amounted to 1.9 nM. As to `COC(=O)NCCCc1cc(C(C)N(C(=O)[C@H]2CNCCO2)C2CC2)sc1-c1cnc2[nH]ccc2c1` (stereo partly shown) [Example 410], the IC50 stood at 6.7 nM. For the compound `COC(=O)NCCCn1nc([C@@H](C)N(C(=O)[C@H]2CN[C@@H](CC(F)F)CO2)C2CC2)c2ccc(C)nc21` [Example 305], the IC50 worked out at 1.2 nM. The same measure, in the same setting: the result for `COC(=O)NCCCc1cc([C@@H](C)N(C(=O)[C@H]2CNCCO2)C2CC2)nn1-c1ccccc1OC` [Example 243] reads 0.7 nM. For `COC(=O)NCCCc1nc([C@@H](C)N(C(=O)[C@H]2CNCCO2)C2CC2)cnc1N(C)C` [Example 442], the half-maximal inhibitory concentration (IC50) worked out at 9.5 nM. On the same count and under the same terms, the result for `CCc1cn(CCCOC)c2cc([C@@H](C)N(C(=O)[C@H]3CNCCO3)C3CC3)nc(CC)c12` [Example 152] reads 1.1 nM; that for `COCCCCc1cc([C@@H](C)N(C(=O)[C@H]2CNCCO2)C2CC2)nc2c1CCCC2` [Example 123], 0.8 nM. With `COC(=O)NCCCn1cc([C@@H](C)N(C(=O)[C@H]2CNC[C@@H](C)O2)C2CC2)nc1-c1ccc(F)cc1` [Example 282], the 50% inhibitory concentration (IC50) is 0.6 nM. Same read-out and setting: the result for `CCc1ncc([C@@H](C)N(C(=O)[C@H]2CNCCO2)C2CC2)cc1CCCCOC` [Example 126] reads 6 nM; that for `COC(=O)NCCCc1cc([C@@H](C)N(C(=O)[C@H]2CNCCO2)C2CC2)sc1-c1ccc(F)cn1` [Example 235], 0.1 nM.

Consider `COC(=O)NCCCc1cc([C@@H](C)N(C(=O)[C@H]2CNCCO2)C2CC2)cc(N(C)S(C)(=O)=O)n1` [Example 362], for which the half-inhibitory concentration (IC50) is 5 nM. Consider `COC(=O)NCCCn1cc([C@@H](C)N(C(=O)[C@H]2CNCCO2)C2CC2)nc1-c1ccc(F)cc1` [Example 171], for which the IC50 is 0.4 nM. On to `COC(=O)NCCOc1cc([C@@H](C)N(C(=O)[C@H]2CNCCO2)C2CC2)nn1-c1ccccc1` [Example 208], for which the half-inhibitory concentration (IC50) is 2.3 nM.
